{"source": "patent US11142524B2", "about": "“Substituted-3H-imidazo[4,5-c]pyridine and 1H-pyrrolo[2,3-c]pyridine series of novel Ectonucleotide Pyrophosphatase/Phosphodiesterase-1 (ENPP1) and stimulator for interferon genes (STING) modulators as cancer immunotherapeutics” (Stingray Therapeutics, Inc., priority 2018, dated 2021)", "key": {"[1]": {"biological_target": "T1, ENPP1 protein (Homo sapiens (Human), UniProt P22413)", "assay": "ENPP1 enzymatic assay with TMP substrate (FIG. 8)", "format": "biochemical", "details": "5.0 ng ENPP1, 150 μM TMP substrate", "protocol": "FIG. 8 depicts results of a similar experiment. 5.0 ng of ENPP1 protein exposed to increasing doses of inhibitor (compound 78 or compound 107-02) for 10 minutes in solution, followed by the addition of 150 μM of TMP substrate. The assay was then incubated for 20 minutes and then read at 405 nm on the envision plate reader."}, "[2]": {"test_system": "ENPP", "assay": "Selectivity"}, "[3]": {"biological_target": "T2, Recombinant Human ENPP-1 Protein (purified in-house) (Homo sapiens (Human), UniProt P22413)", "T2 sequence (P22413 whole entry, looked up)": "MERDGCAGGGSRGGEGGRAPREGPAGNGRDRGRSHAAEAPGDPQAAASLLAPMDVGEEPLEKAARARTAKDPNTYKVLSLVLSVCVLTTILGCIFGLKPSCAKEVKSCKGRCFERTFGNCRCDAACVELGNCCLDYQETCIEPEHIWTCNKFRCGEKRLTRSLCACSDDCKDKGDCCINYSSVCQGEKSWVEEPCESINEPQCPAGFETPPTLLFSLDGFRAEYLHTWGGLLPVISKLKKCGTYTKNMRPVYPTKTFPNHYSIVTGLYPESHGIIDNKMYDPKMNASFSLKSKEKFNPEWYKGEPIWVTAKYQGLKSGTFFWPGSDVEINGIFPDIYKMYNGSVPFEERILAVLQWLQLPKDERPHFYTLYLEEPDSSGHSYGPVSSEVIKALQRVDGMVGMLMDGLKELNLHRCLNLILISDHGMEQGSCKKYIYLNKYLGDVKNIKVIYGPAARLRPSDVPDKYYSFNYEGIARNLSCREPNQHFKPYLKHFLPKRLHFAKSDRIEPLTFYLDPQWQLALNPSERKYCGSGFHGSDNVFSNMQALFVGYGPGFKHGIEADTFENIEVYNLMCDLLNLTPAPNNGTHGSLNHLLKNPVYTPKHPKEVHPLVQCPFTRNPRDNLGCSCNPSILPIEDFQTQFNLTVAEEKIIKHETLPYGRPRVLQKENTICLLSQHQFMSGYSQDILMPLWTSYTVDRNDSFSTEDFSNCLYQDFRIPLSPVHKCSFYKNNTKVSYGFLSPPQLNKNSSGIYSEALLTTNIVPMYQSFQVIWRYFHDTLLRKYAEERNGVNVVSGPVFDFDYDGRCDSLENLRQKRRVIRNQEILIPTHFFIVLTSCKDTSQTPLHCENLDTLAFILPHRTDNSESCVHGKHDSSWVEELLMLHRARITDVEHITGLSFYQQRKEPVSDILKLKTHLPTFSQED", "assay": "ENPP1 Assay (TMP), Example 2", "format": "biochemical", "details": "Table 5, TMP substrate; read-out: ENPP1 (IC50 μM) TMP", "protocol": "Enzyme: 1 ng/μL Recombinant Human ENPP-1 Protein (purified in-house)—Assay Conc.: 5 ng/well of DMSO in 96-well clear assay plates.\n(§1) A ten point serial dilution of drugs was prepared in 10× in assay buffer with the final assay concentrations starting at 10 μM, 3 μM, 1 μM, 0.3 μM . . . 0 μM. A dilution of DMSO was included as a control. The assay plate was set up as follows with each well in duplicate: 75 μL assay buffer+10 μL ENPP1 inhibitor or DMSO Dilutions+10 μL Substrate+5 μL Enzyme (5 ng). Both the enzyme and substrate were added to opposite sides of the well to ensure that there was no interaction until all wells had both components. The plate was then centrifuged gently for 10 seconds, followed by an incubation at 37° C. for 45 minutes. The reaction was quantified by measuring absorbance at 405 nm using the Envision Plate Reader."}, "[4]": {"assay": "Mouse PK Profile", "format": "in vivo"}, "[5]": {"test_system": "IRF-3 reporter in THP1 WT and STING knockout cells", "assay": "THP1 IRF-3 Reporter Assay", "format": "cell-based", "details": "10 μM, primed with 2′3′cGAMP, 24 hours (FIG. 10) or 72 hours (FIG. 11)", "protocol": "FIGS. 10 and 11 depict results of a THP1 IRF-3 Reporter Assay. THP1 WT and STING knockout cells were primed with 2′3′cGAMP and treated with 10 μM ENPP1 inhibitors for 24 hours (FIG. 10) or 72 hours (FIG. 11). Media collected to determine induction of IRF-3 reporter using luminescence reagent QuantiLuc."}, "[6]": {"biological_target": "PgP (Homo sapiens (Human), UniProt P08183)", "sequence (P08183 whole entry)": "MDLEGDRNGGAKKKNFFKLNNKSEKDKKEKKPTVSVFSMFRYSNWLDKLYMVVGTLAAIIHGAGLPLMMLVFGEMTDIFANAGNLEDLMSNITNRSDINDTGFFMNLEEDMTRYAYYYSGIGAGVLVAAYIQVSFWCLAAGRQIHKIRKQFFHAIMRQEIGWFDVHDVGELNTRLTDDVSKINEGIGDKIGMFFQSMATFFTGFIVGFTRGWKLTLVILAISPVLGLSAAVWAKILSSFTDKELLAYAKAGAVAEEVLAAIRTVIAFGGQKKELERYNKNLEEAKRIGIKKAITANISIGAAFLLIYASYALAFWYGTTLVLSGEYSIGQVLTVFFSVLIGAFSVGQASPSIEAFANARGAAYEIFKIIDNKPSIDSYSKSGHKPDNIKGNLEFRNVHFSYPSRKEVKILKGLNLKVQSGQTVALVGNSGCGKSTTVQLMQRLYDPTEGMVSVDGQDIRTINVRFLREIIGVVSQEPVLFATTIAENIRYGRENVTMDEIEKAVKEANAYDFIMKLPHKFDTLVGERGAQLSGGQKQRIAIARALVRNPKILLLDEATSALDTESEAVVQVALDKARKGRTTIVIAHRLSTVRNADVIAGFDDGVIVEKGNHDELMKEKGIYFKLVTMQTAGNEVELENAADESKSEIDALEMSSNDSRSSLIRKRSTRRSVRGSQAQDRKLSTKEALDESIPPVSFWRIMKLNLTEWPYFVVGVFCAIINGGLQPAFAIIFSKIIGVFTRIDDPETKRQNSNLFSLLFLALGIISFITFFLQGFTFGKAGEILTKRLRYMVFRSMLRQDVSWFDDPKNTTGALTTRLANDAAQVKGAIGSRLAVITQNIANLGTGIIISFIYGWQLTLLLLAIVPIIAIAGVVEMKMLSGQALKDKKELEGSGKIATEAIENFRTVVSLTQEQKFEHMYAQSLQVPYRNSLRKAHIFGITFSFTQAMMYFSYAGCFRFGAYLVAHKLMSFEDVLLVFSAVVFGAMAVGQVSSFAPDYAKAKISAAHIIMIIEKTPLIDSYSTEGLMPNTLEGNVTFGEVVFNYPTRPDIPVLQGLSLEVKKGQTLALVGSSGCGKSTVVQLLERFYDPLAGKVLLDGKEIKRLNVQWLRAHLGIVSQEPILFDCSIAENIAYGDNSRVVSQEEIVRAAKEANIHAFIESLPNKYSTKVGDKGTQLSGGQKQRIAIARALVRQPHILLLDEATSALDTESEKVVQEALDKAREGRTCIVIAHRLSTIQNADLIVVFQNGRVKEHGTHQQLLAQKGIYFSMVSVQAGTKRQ", "assay": "PgP Inhibition", "format": "in vitro ADME"}, "[7]": {"biological_target": "T2, Recombinant Human ENPP-1 Protein (purified in-house)", "assay": "ENPP1 Assay (ATP), Example 2", "format": "biochemical", "details": "Table 5, ATP substrate; read-out: ENPP1 (IC50 μM) ATP", "protocol": "Assay Buffer: 1 mM CaCl2, 0.2 mM ZnCl2, 50 mM Tris, pH 9.0. Substrate: 100 μM Adenosine 5′-triphosphate disodium salt hydrate (Promega: V703A)—Assay Conc.: 10 μM. Enzyme: 1 ng/μL Recombinant Human ENPP-1 Protein (purified in-house)—Assay Conc.: 5 ng/well of DMSO in 96-well white assay plates. Cell Titer Glo (Promega, cat #G7572).\nas §1, with “by” for “by an”, “RT” for “37° C.”, “20 minutes. To detect levels of ATP, Cell Titer Glo was added 1:1 to each well and incubated for 10” for “45”, “luminescence” for “absorbance at 405 nm”"}, "[8]": {"assay": "Physicochemical profile of 107-02 (PSA, Log P, Log S, solubility)"}, "[9]": {"test_system": "KPC mouse model of PDAC", "assay": "Tumor growth in KPC mouse model of PDAC", "format": "in vivo", "details": "once daily via IP at 20 mg/kg, FIG. 15B", "from_the_text": "FIG. 15A a pharmacokinetic (PK) plasma concentration chart for compound 107-02. FIG. 15B is a tumor growth inhibition curve for compound 107-02 following in vivo administration. […] FIGS. 15C and 15D are flowcytometric charts of excised tumors following administration of compound 107-02. At the end of the study, tumors were excised and analyzed for T-cells and tumor-associated macrophages using flow cytometry. *p<0.05."}, "[10]": {"biological_target": "T1, ENPP1 protein", "assay": "ENPP1 Thermal Shift Assay (Example 1)", "format": "binding", "protocol": "Assay Buffer (1 mM CaCl2, 0.2 mM ZnCl2, 50 mM Tris, pH 9.0) 5000×SYPRO Orange (ThermoFisher cat #S6651) 384-well PCR Plates\nEach drug was prepared as a 10× solution in the assay buffer and SYPRO Orange was diluted to 10× concentration in water. Wells were set up in duplicate in a 384-well PCR plate as follows: 14 μL assay buffer, 2 μL ENPP1 Inhibitor or DMSO, 2 μL (0.5 μg) ENPP1 protein. Each well was mixed and incubated on ice for 5 minutes. Post incubation, 2 μL of SYPRO Orange was mixed into each well and followed by a gentle centrifugation. The protein melt reaction was run using ViiA7 software with temperatures beginning at 25° C. and increasing by 0.05° C./s to the maximum temperature of 99° C.\nIn a 384-well plate, 1.0 μg of ENPP1 protein incubated with 100 μM of the corresponding drug for 5 minutes. Each well exposed to increasing temperatures to determine an unfolding temperature of the protein."}, "[11]": {"test_system": "Saos-2 Cells", "assay": "ENPP1 Mineralization Assay", "format": "cell-based", "details": "FIG. 9, mineralization components for 3 days", "protocol": "Saos-2 Cells (ATCC CAT #HTB-85). Culture Medium. 24-well Tissue Culture Plate. Ascorbic Acid, 5 mg/mL (100×). β-Glycerophosphate, 1M (100×). Phosphate Buffered Saline. Alizarin Red, 40 mM pH 4.2. 70% Ethanol. Dye Extraction Reagent, 10% Methanol+10% Acetic Acid\nSaos-2 cells were plated at a density of 1.5×10^6 cells/well and allowed to grow to 100% confluency over the following 1-2 days. Once completely confluent, the media was replaced with fresh media supplemented with 1× ascorbic acid, 1× β-glycerophosphate, and varying concentrations of ENPP1 inhibitor (if applicable). The addition of the mineralization components was considered Day 1. On Day 3, the media was gently aspirated with no wash followed by the addition of fresh media, mineralization components, and ENPP1 inhibitor (if applicable). On day 5, the media was gently aspirated and the cells were washed twice with PBS. The cells were then fixed with ice cold 70% ethanol for 1 hour at 4° C. Cells were washed once with PBS and stained with Alizarin Red for 30 minutes at room temperature with gentle rotation. Stained cells were washed three times with water for 10 minutes at room temperature with gentle rotation. After imaging cells, dye extraction reagent was added to each well and incubated for 30 minutes at room temperature. Alizarin red was quantified by measuring absorbance at a wavelength of 405 nm using the Envision.\nFIG. 9 depicts a picture of results of a similar SAOS-2 mineralization assay. SAOS-2 cell were cultured in the presence and absence of ENPP1 inhibitor (compound 78, 107-02 or 108) and exposed to mineralization components for 3 days."}, "[12]": {"test_system": "Caco-2", "assay": "Caco-2 permeability", "format": "in vitro ADME"}}}
{"smiles": "COc1ccc(NC(=O)CSc2nc3c(C)c(C#N)ncc3[nH]2)cc1OP(=O)(O)O", "note": "[Compound 107-02, 5-(2-((6-Cyano-7-methyl-3H-imidazo[4,5-c]pyridin-2-yl)thio)acetamido)-2-methoxyphenyl dihydrogen phosphate]", "values": [{"measurement": "enzymatic activity", "setting": "[1]", "result": "significant decrease"}, {"measurement": "Selectivity", "setting": "[2]", "result": "Highly selective ENPPi"}, {"measurement": "IC50", "setting": "[3]", "result": 0.742, "unit": "µM"}, {"measurement": "Mouse PK Profile CO", "setting": "[4]", "result": 2840.69, "unit": "ng/mL"}, {"measurement": "AUC(0-t)", "setting": "[4]; plasma", "result": 1640, "unit": "ng·h/mL"}, {"measurement": "half-life", "setting": "[4]; plasma", "result": 1.83, "unit": "h"}, {"measurement": "AUC(0-inf)", "setting": "[4]; plasma, read-out: AUCINF obs", "result": 1650, "unit": "ng·h/mL"}, {"measurement": "clearance", "setting": "[4]; plasma, read-out: CL obs", "result": 22.1, "unit": "mL/min/kg"}, {"measurement": "IRF-3 response", "setting": "[5]", "result": "significant increase"}, {"measurement": "PgP Inhibition", "setting": "[6]", "result": "Negative"}, {"measurement": "IC50", "setting": "[7]", "result": 0.211, "unit": "µM"}, {"measurement": "solubility", "setting": "[8]", "result": 640, "unit": "µg/mL"}, {"measurement": "logP", "setting": "[8]; pH 7.4", "result": 0.009}, {"measurement": "tumor growth of KPC mouse model of PDAC", "setting": "[9]", "result": "inhibits tumor growth"}, {"measurement": "Tm (° C.)", "setting": "[10]; Table 2, FIG. 7, 100 μM drug, 1.0 μg ENPP1, NT 60.05", "result": 63.89, "unit": "°C"}, {"measurement": "ΔTm at 100 µM", "setting": "[10]; read-out: ΔTm (° C.)", "result": 3.84, "unit": "°C"}, {"measurement": "total mineralization", "setting": "[11]", "result": "significant decrease"}, {"measurement": "Caco2", "setting": "[12]; first entry (Caco2)", "result": "−5.28"}, {"measurement": "Caco-2", "setting": "[12]; second entry (Caco-2)", "result": "−4.867"}]}
